Experimental data reported in PubChem BioAssay AID264 (DTP/NCI, 2004).
Results filed as inconclusive are left out.

System: nude mice, LX-1 lung xenograft intrarenal, tumor weight T/C
Test: NCI In Vivo Anticancer Drug Screen. Data for tumor model Human Lung LX-1 Xenograft (intrarenal inoculation) in NU/NU Swiss (nude) mice
Details: endpoint: mean tumor weight change, higher = larger tumour
In short: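 In vivo, transplantable tumor; compound vs vehicle arms; tumor size measured; value = T/C.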

[1] = dose: 150.0 mg/kg/injection, schedule: Q04DX003 (sc), vehicle: Klucel (hydroxypropylcellulose) (HPC)

In the case of O=C1C=CC(=O)N1c1ccc(Cl)cc1, the T/C (dose: 37.5 mg/kg/injection, schedule: Q04DX003 (sc), vehicle: Klucel (hydroxypropylcellulose) (HPC)) is reported as 116 % of control, the T/C (dose: 75.0 mg/kg/injection, schedule: Q04DX003 (sc), vehicle: Klucel (hydroxypropylcellulose) (HPC)) is reported as 123 % of control and the T/C [1] is reported as 85 % of control.
With C/C=C(\C)c1cc(=O)c2c(C)cc3c(c2o1)C(=O)c1c(O)c(C2CC(C)(N(C)C)C(O)C(C)O2)cc(C2CC(N(C)C)C(O)C(C)O2)c1C3=O (centres undefined) the T/C (dose: 2.0 mg/kg/injection, schedule: Q04DX003 (sc), vehicle: saline) was 76 % of control, the T/C (dose: 4.0 mg/kg/injection, schedule: Q04DX003 (sc), vehicle: saline) was 89 % of control and the T/C (dose: 8.0 mg/kg/injection, schedule: Q04DX003 (sc), vehicle: saline) was 80 % of control. For the same compound, the T/C (dose: 16.0 mg/kg/injection, schedule: Q04DX003 (sc), vehicle: saline) was 35 % of control.
COc1cc2c(c(OC)c1OC)-c1ccc(OC)c(=O)cc1[C@@H](N)CC2 was tested, and the T/C (dose: 0.31 mg/kg/injection, schedule: Q01DX010 (sc), vehicle: Klucel (hydroxypropylcellulose) (HPC)) was 104 % of control, the T/C (dose: 0.63 mg/kg/injection, schedule: Q01DX010 (sc), vehicle: Klucel (hydroxypropylcellulose) (HPC)) was 74 % of control and the T/C (dose: 1.25 mg/kg/injection, schedule: Q01DX010 (sc), vehicle: Klucel (hydroxypropylcellulose) (HPC)) was 76 % of control. The T/C (dose: 1.57 mg/kg/injection, schedule: Q01DX010 (sc), vehicle: Klucel (hydroxypropylcellulose) (HPC)) was 79 % of control, the T/C (dose: 2.5 mg/kg/injection, schedule: Q01DX010 (sc), vehicle: Klucel (hydroxypropylcellulose) (HPC)) was 50 % of control and the T/C (dose: 3.13 mg/kg/injection, schedule: Q01DX010 (sc), vehicle: Klucel (hydroxypropylcellulose) (HPC)) was 61 % of control. The T/C (dose: 6.25 mg/kg/injection, schedule: Q01DX010 (sc), vehicle: Klucel (hydroxypropylcellulose) (HPC)) was 66 % of control.
For N[C@H](C(=O)O)[C@@H]1CC(Cl)=NO1, the T/C (dose: 2.0 mg/kg/injection, schedule: Q01DX010 (sc), vehicle: saline) was 16 % of control, the T/C (dose: 2.0 mg/kg/injection, schedule: Q01DX010 (sc), vehicle: suspension in saline) was 30 % of control and the T/C (dose: 4.0 mg/kg/injection, schedule: Q01DX010 (sc), vehicle: suspension in saline) was 33 % of control. The T/C (dose: 8.0 mg/kg/injection, schedule: Q01DX010 (sc), vehicle: suspension in saline) was 45 % of control and the T/C (dose: 16.0 mg/kg/injection, schedule: Q01DX010 (sc), vehicle: suspension in saline) was 15 % of control.
In the case of Cc1c(N)nc(C(CC(N)=O)NCC(N)C(N)=O)nc1C(=O)NC(C(=O)NC(C)C(O)C(C)C(=O)NC(C(=O)NCCc1nc(-c2nc(C(=O)NCCCNCCCc3ccccn3)cs2)cs1)C(C)O)C(OC1OC(CO)C(O)C(O)C1OC1OC(CO)C(O)C(OC(N)=O)C1O)c1cnc[nH]1 (centres undefined), the T/C (dose: 3.0 mg/kg/injection, schedule: Q01DX010 (sc), vehicle: water) is reported as 16 % of control and the T/C (dose: 12.0 mg/kg/injection, schedule: Q01DX010 (sc), vehicle: water) is reported as -82 % of control.
In the case of C=C(C)C(=O)OC1C/C(CO)=C\C(O)C/C(C)=C/C2OC(=O)C(=C)C21 (centres undefined), the T/C (dose: 20.0 mg/kg/injection, schedule: Q04DX003 (sc), vehicle: saline + alcohol) is reported as 96 % of control, the T/C (dose: 40.0 mg/kg/injection, schedule: Q04DX003 (sc), vehicle: saline + alcohol) is reported as 119 % of control and the T/C (dose: 80.0 mg/kg/injection, schedule: Q04DX003 (sc), vehicle: saline + alcohol) is reported as 104 % of control. The T/C (dose: 160.0 mg/kg/injection, schedule: Q04DX003 (sc), vehicle: saline + alcohol) was 107 % of control.
With O=C1C=C2C(=CCOC2O)O1 (centres undefined) the T/C (dose: 1.0 mg/kg/injection, schedule: Q04DX003 (sc), vehicle: Klucel (hydroxypropylcellulose) (HPC)) was 158 % of control, the T/C (dose: 2.0 mg/kg/injection, schedule: Q04DX003 (sc), vehicle: Klucel (hydroxypropylcellulose) (HPC)) was 92 % of control and the T/C (dose: 8.0 mg/kg/injection, schedule: Q04DX003 (sc), vehicle: Klucel (hydroxypropylcellulose) (HPC)) was 151 % of control.
With CCOC(=O)C(CC(C)C)NC(=O)C(N)Cc1ccc(N(CCCl)CCCl)cc1 (centres undefined) the T/C (dose: 15.0 mg/kg/injection, schedule: Q04DX003 (sc), vehicle: water) was 72 % of control and the T/C (dose: 30.0 mg/kg/injection, schedule: Q04DX003 (sc), vehicle: water) was 55 % of control.
With CCC1=C[C@H]2CN(CCc3c([nH]c4ccccc34)[C@@](C(=O)OC)(c3cc4c(cc3OC)N(C)[C@H]3[C@@](O)(C(=O)NC)[C@H](OC(C)=O)[C@]5(CC)C=CCN6CC[C@]43[C@@H]65)C2)C1 the T/C (dose: 0.5 mg/kg/injection, schedule: Q04DX003 (sc), vehicle: water) was 63 % of control, the T/C (dose: 1.0 mg/kg/injection, schedule: Q04DX003 (sc), vehicle: water) was 67 % of control and the T/C (dose: 4.0 mg/kg/injection, schedule: Q04DX003 (sc), vehicle: water) was 10 % of control.
COC(=O)c1ccoc1 was tested, and the T/C (dose: 150.0 mg/kg/injection, schedule: Q04DX003 (sc), vehicle: saline) was 107 % of control.
In the case of C(=N/NC1=NCCN1)/c1c2ccccc2c(/C=N\NC2=NCCN2)c2ccccc12, the T/C (dose: 18.75 mg/kg/injection, schedule: Q04DX003 (sc), vehicle: suspension in saline) is reported as 117 % of control, the T/C (dose: 75.0 mg/kg/injection, schedule: Q04DX003 (sc), vehicle: suspension in saline) is reported as 72 % of control and the T/C (dose: 150.0 mg/kg/injection, schedule: Q04DX003 (sc), vehicle: suspension in saline) is reported as 49 % of control.
CCC1(O)CC2CN(CCc3c([nH]c4ccccc34)C(C(=O)OC)(c3cc4c(cc3OC)N(C)C3C(O)(C(N)=O)C(O)C5(CC)C=CCN6CCC43C65)C2)C1 (centres undefined) (tested in a mixture with another compound) was tested, and the T/C (dose: 1.5 mg/kg/injection, schedule: Q04DX003 (sc), vehicle: water) was 28 % of control.
With Ic1ncnc2c1ncn2C1CCCO1 (centres undefined) the T/C (dose: 200.0 mg/kg/injection, schedule: Q04DX003 (sc), vehicle: Klucel (hydroxypropylcellulose) (HPC)) was 168 % of control, the T/C (dose: 800.0 mg/kg/injection, schedule: Q04DX003 (sc), vehicle: Klucel (hydroxypropylcellulose) (HPC)) was 107 % of control and the T/C (dose: 1600.0 mg/kg/injection, schedule: Q04DX003 (sc), vehicle: Klucel (hydroxypropylcellulose) (HPC)) was 41 % of control.
CNC(=O)OCc1c(COC(=O)NC)c(-c2ccccc2)n(C)c1-c1ccccc1 was tested, and the T/C (dose: 50.0 mg/kg/injection, schedule: Q04DX003 (sc), vehicle: distilled water + Tween-80) was 88 % of control, the T/C (dose: 100.0 mg/kg/injection, schedule: Q04DX003 (sc), vehicle: distilled water + Tween-80) was 182 % of control and the T/C (dose: 200.0 mg/kg/injection, schedule: Q04DX003 (sc), vehicle: distilled water + Tween-80) was 50 % of control. For the same compound, the T/C (dose: 800.0 mg/kg/injection, schedule: Q04DX003 (sc), vehicle: distilled water + Tween-80) was 52 % of control and the T/C (dose: 1600.0 mg/kg/injection, schedule: Q04DX003 (sc), vehicle: distilled water + Tween-80) was 57 % of control.
For CN(CO)c1nc(N(C)CO)nc(N(C)CO)n1, the T/C (dose: 25.0 mg/kg/injection, schedule: Q01DX010 (sc), vehicle: saline) was 92 % of control, the T/C (dose: 50.0 mg/kg/injection, schedule: Q01DX010 (sc), vehicle: saline) was 57 % of control and the T/C (dose: 100.0 mg/kg/injection, schedule: Q01DX010 (sc), vehicle: saline) was 49 % of control.
With Cc1nn(CCO)c(C)c1N=[N+]([O-])c1c(C)nn(CCO)c1C the T/C [1] was 99 % of control, the T/C (dose: 300.0 mg/kg/injection, schedule: Q04DX003 (sc), vehicle: Klucel (hydroxypropylcellulose) (HPC)) was 105 % of control and the T/C (dose: 600.0 mg/kg/injection, schedule: Q04DX003 (sc), vehicle: Klucel (hydroxypropylcellulose) (HPC)) was 121 % of control. For the same compound, the T/C (dose: 1200.0 mg/kg/injection, schedule: Q04DX003 (sc), vehicle: Klucel (hydroxypropylcellulose) (HPC)) was 103 % of control.
For CC1=C[S+](c2ccccc2)c2cccc3cc4ccccc4c1c23 (centres undefined), the T/C (dose: 2.0 mg/kg/injection, schedule: Q04DX003 (sc), vehicle: saline with Tween-80) was 102 % of control.
CC(=O)OC1C(O)C(C)OC(OC2C(OC(=O)C3CCC4C(C3)OC3(CC(OC(=O)/C=C/c5ccccc5)C(C)CO3)C43CO3)OC(C)C(O)C2OC(C)=O)C1O (centres undefined) was tested, and the T/C (dose: 15.0 mg/kg/injection, schedule: Q04DX003 (sc), vehicle: distilled water + Tween-80) was 114 % of control, the T/C (dose: 30.0 mg/kg/injection, schedule: Q04DX003 (sc), vehicle: distilled water + Tween-80) was 121 % of control and the T/C (dose: 60.0 mg/kg/injection, schedule: Q04DX003 (sc), vehicle: distilled water + Tween-80) was 162 % of control.
CN=C(N)N/N=C(\C)c1ccc2c(c1)Cc1ccccc1-2 was tested, and the T/C (dose: 150.0 mg/kg/injection, schedule: Q04DX003 (sc), vehicle: saline with Tween-80) was 152 % of control, the T/C (dose: 300.0 mg/kg/injection, schedule: Q04DX003 (sc), vehicle: saline with Tween-80) was 117 % of control and the T/C (dose: 600.0 mg/kg/injection, schedule: Q04DX003 (sc), vehicle: saline with Tween-80) was 106 % of control.
In the case of Cc1ccccc1N(CC1CO1)CC1CO1 (centres undefined), the T/C (dose: 50.0 mg/kg/injection, schedule: Q01DX010 (sc), vehicle: suspension in saline) is reported as 33 % of control, the T/C (dose: 100.0 mg/kg/injection, schedule: Q01DX010 (sc), vehicle: suspension in saline) is reported as 22 % of control and the T/C (dose: 200.0 mg/kg/injection, schedule: Q01DX010 (sc), vehicle: suspension in saline) is reported as 104 % of control. For the same compound, the T/C (dose: 400.0 mg/kg/injection, schedule: Q01DX010 (sc), vehicle: suspension in saline) was 59 % of control.
